Reference: patent US10647680B2, “Urea compound, preparation method therefor and medical use thereof” (Ancureall Pharmaceutical (Shanghai) Co., Ltd., priority 2016, dated 2020)
One block for each compound: values may come before it.

Assays:
Assay type in all cases: cell-based
[1] = test system: RAMOS (positive expression of Brutons tyrosine protein kinase); assay: In vitro growth inhibition (GI50), RAMOS; conditions: Homo sapiens, Cell lines of leukemia, read-out: GI 50 Ramos BTK
NCI-H292 (EGFR WT) = assay: In vitro growth inhibition (GI50), NCI-H292; conditions: Homo sapiens
From the text: (§1) Tumor cell line is an effective cell model for studying the inhibition of tumor cell growth or proliferation in vitro. In the present invention, a representative tumor cell line was selected to determine the cell growth inhibition activity of the present compound. All cell lines used were from ATCC, DSMZ, and the Cell Bank of the Chinese Academy of Sciences. Cell culture conditions and methods were in accordance with the requirements of each cell line. Cells were subcultured in vitro for no more than 3 passages each time, and as required, single-clone purification and identification of cell lines could be carried out.
(§2) The cell culture media used were RPMI1640 (Gibco), MEM (Gibco), McCOY'S5A (Gibco), and IMDM (Gibco). The complete medium was prepared by supplement with 5˜20% fetal calf serum (Gibco), 1% double-antibiotics (10000 units/mL penicillin and 10000 units/mL), 2 mM glutamine or 1 mM sodium pyruvate, respectively.
(§3) Human epidermal cancer cell line A431 (EGFR WT, amplification and high expression, from Shanghai Cell Bank of Chinese Academy of Sciences and ATCC), human lung cancer cell line NCI-H292 (EGFR WT, purchased from Shanghai Cell Bank of Chinese Academy of Sciences), NSCLC cell lines PC-9 and HCC827 (EGFR exon19 E746-A750 deletion, two cell lines are sensitive to the first-generation EGFR PTK inhibitor), NSCLC cell line NCI-H1975 (EGFR L858R/T790M and the first-generation EGFR inhibitor resistance, ATCC) were cultured with 1×RPMI1640 complete medium (supplement with 10% FBS), respectively.
(§4) Adherent cells were digested with 0.25% pancreatin-EDTA (Gibco). The suspension cells were collected by centrifugation. The supernatant was discarded and the cell pellet was resuspended and counted. Different cell concentrations (5˜10×10^4 cells/mL) were prepared according to the growth cycle of each cell line and then seeded on a 96-well plate (Corning), 100 μL/well. The cells were incubated overnight at 37° C., 5% CO2. The compounds were added to the cells on the second day with 2 wells in parallel. The final concentration of organic solvent shall not exceed 1%. The cells were continually incubated for 3 to 5 days, and then subjected to MTT assay.
(§5) The compound of the present invention and the control compound were dissolved in DMSO (Sigma) respectively, with the purity of more than 98%. The compound was stored in a concentration of 10 mM at −20° C. and diluted to 2- or 10-fold series prior to use.
(§6) Dojindo CCK8 reagent kit was used as MTT assay. THERMO […] FC meter was used as microplate reader.
(§7) For adherent cells, culture medium was removed and immediately replaced with the fresh prepared medium which contains 10% CCK8 reagent (100 μL/well). For the suspension cells, CCK8 was directly added to 10% of the final concentration. The cells were continually incubated for 1˜4 h. When a dark yellow color could be observed in the solvent control wells, the absorbance value at OD450 nm was measured and the cell growth rate was calculated according to the following formula: Cell Growth Rate (%)=100*(T−T0)/(C−T0) T=optical density of drug treatment cell well—optical density of blank control well; T0=optical density of cell well before drug treatment—optical density of blank control well; C=optical density of cell well of solvent control group—optical density of blank control well. The concentration value of 50% inhibition of cell growth (GI50) was calculated according to the drug concentration and cell growth rate curve. The experiment was independently repeated 1˜3 times, and subject to biological statistical analysis. 4. Experimental Results
(§8) Tumor cell growth inhibition test was performed by selecting representative compounds (compounds 4, 11, 12, 16, 27, 68, 71, 77, 79, 89 and 116 of the present invention). The initial concentration of the compound was 5,000 nM, then it was serially diluted by 2-fold or 10-fold to 0.01 nM. The GI50 value of each test compound was calculated according to the GI50 assay and calculation method. […]

[2] = test system: PC-9 (EGFR exon19 E746-A750 deletion); assay: In vitro growth inhibition (GI50), PC-9; conditions: Homo sapiens; PC-9, EGFR DelE746-A750
From the text: as §1, §2, §3, §4, §5, §6, §7, §8

Structure (SMILES): CC(C)(C)c1cc(NC(=O)Nc2ccc(-n3cnc4cc(OCCO)ccc43)cc2)no1 [Compound 11, 1-(5-tert-butyl-isoxazol-3-yl)-3-{4-[5-(2-hydroxy-ethoxyl)-benzimidazol-1-yl]-phenyl]-urea]
GI50 [1]: > 1000 nM
GI50 (NCI-H292 (EGFR WT)): > 2500 nM
GI50 [2]: > 2500 nM

Structure (SMILES): COc1ccc2c(c1)ncn2-c1ccc(NC(=O)Nc2cc(C(C)(C)C)n[nH]2)cc1 [Compound 71, 1-(5-tert-butyl-2H-pyrazol-3-yl)-3-[4-(5-methoxyl-benzimidazol-1-yl)-phenyl]-urea]
GI50 [1]: > 1000 nM
GI50 (NCI-H292 (EGFR WT)): > 2500 nM
GI50 [2]: > 2500 nM

Structure (SMILES): CC(C)(C)c1cc(NC(=O)Nc2ccc(-n3cnc4cc(O)ccc43)cc2)no1 [Compound 4, 1-(5-tert-butyl-isoxazol-3-yl)-3-[4-(5-hydroxy-benzimidazol-1-yl)-phenyl]-urea]
GI50 [1]: 100 to 1000 nM
GI50 (NCI-H292 (EGFR WT)): > 2500 nM
GI50 [2]: > 2500 nM

Structure (SMILES): COCCOc1ccc2c(c1)ncn2-c1ccc(NC(=O)Nc2cc(C(C)(C)C)n[nH]2)cc1 [Compound 77, 1-(5-tert-butyl-2H-pyrazol-3-yl)-3-{4-[5-(2-methoxyl-ethoxyl)-benzimidazol-1-yl]-phenyl}-urea]
GI50 [1]: > 1000 nM
GI50 (NCI-H292 (EGFR WT)): > 2500 nM
GI50 [2]: > 2500 nM

Structure (SMILES): CC(C)(C)c1cc(NC(=O)Nc2ccc(-n3cnc4ccc(OCCN5CCOCC5)cc43)cc2)no1 [Compound 27, 1-(5-tert-butyl-isoxazol-3-yl)-3-{4-[6-(2morpholin-4-yl-ethoxyl)-benzimidazol-1-yl]-phenyl}-urea]
GI50 [1]: > 1000 nM
GI50 (NCI-H292 (EGFR WT)): > 2500 nM
GI50 [2]: > 2500 nM

Structure (SMILES): CC(C)(C)c1cc(NC(=O)Nc2ccc(-n3cnc4ccccc43)cc2)[nH]n1 [Compound 68, 1-(4-benzimidazol-1-yl-phenyl)-3-(5-tert-butyl-2H-pyrazol-3-yl)-urea]
GI50 [1]: > 1000 nM
GI50 (NCI-H292 (EGFR WT)): > 2500 nM
GI50 [2]: > 2500 nM

Structure (SMILES): CC(C)(C)c1cc(NC(=O)Nc2ccc(-n3cnc4cc(OCCN5CCOCC5)ccc43)cc2)no1 [Compound 16, 1-(5-tert-butyl-isoxazol-3-yl)-3-{4-[5-(2-morpholin-4-yl-ethoxyl)-benzimidazol-1-yl]-phenyl}-urea]
GI50 [1]: > 1000 nM
GI50 (NCI-H292 (EGFR WT)): > 2500 nM
GI50 [2]: > 2500 nM

Further lines, results first:

GI50 [1]: > 1000 nM
GI50 (NCI-H292 (EGFR WT)): > 2500 nM
GI50 [2]: > 2500 nM
Structure (SMILES): CC(C)(C)c1cc(NC(=O)Nc2ccc(-n3cnc4cc(OCCO)ccc43)cc2)[nH]n1 [Compound 79, 1-(5-tert-butyl-2H-pyrazol-3-yl)-3-{4-[5-(2-hydroxy-ethoxyl)-benzimidazol-1-yl]-phenyl]urea]

GI50 [1]: > 1000 nM
GI50 (NCI-H292 (EGFR WT)): > 2500 nM
GI50 [2]: > 2500 nM
Structure (SMILES): CC(C)(C)c1cc(N)n(C(=O)Nc2ccc(-n3cnc4ccccc43)cc2)n1 [Compound 116, 5-amino-3-tert-butyl-pyrazol-1-carboxylic acid (4-benzimidazol-1-yl-phenyl)-amide]

GI50 [1]: > 1000 nM
GI50 (NCI-H292 (EGFR WT)): > 2500 nM
GI50 [2]: > 2500 nM
Structure (SMILES): CC(C)(C)c1cc(NC(=O)Nc2ccc(-n3cnc4cc(OCCN5CCOCC5)ccc43)cc2)[nH]n1 [Compound 89, 1-(5-tert-butyl-2H-pyrazol-3-yl)-3-{4-[5-(2-morpholin-4-yl-ethoxyl)-benzimidazol-1-yl]-phenyl}-urea]
